Experimental findings from US8106042B2 (priority 2008, dated 2012) are described below.

The target in the assay is α7-subtype of nicotinic receptors (Mus musculus, UniProt P49582). Kind of assay: in vivo. Further details: species or system mice. As to conditions: read-out: Inhibition of 3H-α-Bungarotoxine Binding EC50.
α7-subtype of nicotinic receptors, sequence (P49582 23-502): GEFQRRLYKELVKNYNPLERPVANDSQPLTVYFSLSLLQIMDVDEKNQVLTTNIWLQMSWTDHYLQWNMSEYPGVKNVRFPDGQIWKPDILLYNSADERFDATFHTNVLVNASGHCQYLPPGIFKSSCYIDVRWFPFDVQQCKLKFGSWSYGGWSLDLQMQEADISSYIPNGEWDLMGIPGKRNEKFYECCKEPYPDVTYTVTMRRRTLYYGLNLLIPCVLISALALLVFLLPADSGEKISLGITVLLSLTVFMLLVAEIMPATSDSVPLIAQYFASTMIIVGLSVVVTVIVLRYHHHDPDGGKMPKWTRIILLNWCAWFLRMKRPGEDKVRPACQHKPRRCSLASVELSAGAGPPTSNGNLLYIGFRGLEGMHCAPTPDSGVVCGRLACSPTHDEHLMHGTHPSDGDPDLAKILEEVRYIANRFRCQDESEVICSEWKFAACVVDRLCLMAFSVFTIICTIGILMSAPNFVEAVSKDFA

Turning to `[O-][N+]12CCC(CC1)N(c1nnc(-c3ccc4c(c3)OCO4)o1)CC2` [Compound 1, 4-(5-Benzo[1,3]-dioxol-5-yl-[1,3,4]oxadiazol-2-yl)-1,4-diazabicyclo[3.2.2]-nonane-1-oxide], the ED50 was found to be 1.5 mg/kg.
